The source made the active and inactive calls. No cut-off for these calls is given here.
Assays:
[1] = biological target: 3',5'-cyclic-AMP phosphodiesterase 4D (Homo sapiens, UniProt Q08499); assay: Inhibition of human PDE4D2 (86 to 413 residues) expressed in Escherichia coli BL21 codon-plus cells using [3H]cAMP as substrate incubated for 15 mins by liquid scintillation counting method
[2] = biological target: Phosphodiesterase isozyme 4 (Homo sapiens, UniProt Q86V67); assay: Inhibition of PDE4 (unknown origin)
[3] = Toxicity in Beagle dog assessed as animals exhibiting emesis at 1 mg/kg, po observed for 180 mins; assay type: organism-based, Canis lupus familiaris; details: in vivo, 3 h
Mus musculus [4] = assay: Anti-VaD activity against UCCAO-induced spatial memory deficient C57BL/6J mouse model assessed as improvement in spatial learning and memory by measuring reduction in escape latency at 0.7 mg/kg, po administered for 21 days by Morris water maze test; assay type: functional, organism-based
Mus musculus [5] = assay: Anti-VaD activity against UCCAO-induced spatial memory deficient C57BL/6J mouse model assessed as improvement in spatial learning and memory by measuring increase in residence time on the platform at 0.7 mg/kg, po administered for 21 days by Morris water maze test; assay type: functional, organism-based
Mus musculus [6] = assay: Anti-VaD activity against UCCAO-induced spatial memory deficient C57BL/6J mouse model assessed as improvement in spatial learning and memory by measuring increase in frequency of platform area crossings at 0.7 mg/kg, po administered for 21 days by Morris water maze test; assay type: functional, organism-based

3',5'-cyclic-AMP phosphodiesterase 4D, sequence (Q08499 whole entry, the tested form may be a part): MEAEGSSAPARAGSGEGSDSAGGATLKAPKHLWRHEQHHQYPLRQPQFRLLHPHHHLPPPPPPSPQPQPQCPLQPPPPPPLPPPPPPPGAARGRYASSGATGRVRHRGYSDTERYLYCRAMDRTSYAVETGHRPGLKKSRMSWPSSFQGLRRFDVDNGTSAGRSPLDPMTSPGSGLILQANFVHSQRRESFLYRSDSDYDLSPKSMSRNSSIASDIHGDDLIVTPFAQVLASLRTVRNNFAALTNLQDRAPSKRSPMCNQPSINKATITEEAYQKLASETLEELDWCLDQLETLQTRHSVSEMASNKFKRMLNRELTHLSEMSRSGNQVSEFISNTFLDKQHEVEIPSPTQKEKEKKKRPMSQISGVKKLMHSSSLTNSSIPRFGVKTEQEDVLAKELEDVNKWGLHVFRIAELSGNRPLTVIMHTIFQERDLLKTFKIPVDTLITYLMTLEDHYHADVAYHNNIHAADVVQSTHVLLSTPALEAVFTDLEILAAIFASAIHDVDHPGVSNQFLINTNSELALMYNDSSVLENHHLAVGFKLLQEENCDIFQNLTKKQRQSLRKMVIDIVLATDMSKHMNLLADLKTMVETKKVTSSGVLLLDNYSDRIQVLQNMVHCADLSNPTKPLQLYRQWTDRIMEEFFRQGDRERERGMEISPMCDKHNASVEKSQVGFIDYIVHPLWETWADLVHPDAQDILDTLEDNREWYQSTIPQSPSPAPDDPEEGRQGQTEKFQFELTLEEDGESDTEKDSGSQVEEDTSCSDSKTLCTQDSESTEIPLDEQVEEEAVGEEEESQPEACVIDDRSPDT
Phosphodiesterase isozyme 4, sequence (Q86V67 whole entry): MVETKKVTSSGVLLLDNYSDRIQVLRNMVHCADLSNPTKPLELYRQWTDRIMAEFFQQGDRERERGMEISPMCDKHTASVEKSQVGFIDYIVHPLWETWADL

SMILES	IC50 [1] [nM]	further results
COc1c(OCCCCCBr)cc2oc3cc4c(c(O)c3c(=O)c2c1CC=C(C)C)C=CC(C)(C)O4	> 10000	
COc1c(OCCCCCN2CCCC2)cc2oc3cc4c(c(O)c3c(=O)c2c1CC=C(C)C)C=CC(C)(C)O4	200	
COc1c(OCCCCCCCBr)cc2oc3cc4c(c(O)c3c(=O)c2c1CC=C(C)C)C=CC(C)(C)O4	> 10000	
CCOC(=O)CCCCCCCOc1cc2oc3cc4c(c(O)c3c(=O)c2c(CC=C(C)C)c1OC)C=CC(C)(C)O4	> 10000	
COc1c(OCCCCN2CCCC2)cc2oc3cc4c(c(O)c3c(=O)c2c1CC=C(C)C)C=CC(C)(C)O4	622	
COc1c(OCCCCCCCCC(=O)O)cc2oc3cc4c(c(O)c3c(=O)c2c1CC=C(C)C)C=CC(C)(C)O4	58	
COc1c(O)cc2oc3cc(O)c(CC=C(C)C)c(O)c3c(=O)c2c1CC=C(C)C [MANGOSTIN]	1310	
CCOC(=O)CCCCCCCCOc1cc2oc3cc4c(c(O)c3c(=O)c2c(CC=C(C)C)c1OC)C=CC(C)(C)O4	> 10000	
COc1c(OCCCCCCN2CCCC2)cc2oc3cc4c(c(O)c3c(=O)c2c1CC=C(C)C)C=CC(C)(C)O4	99	
C=C(C)[C@@H]1CC[C@]2(C(=O)O)CC[C@]3(C)[C@H](CC[C@@H]4[C@@]5(C)CC[C@H](O)C(C)(C)[C@@H]5CC[C@]43C)[C@@H]12 [BETULINIC ACID]		IC50 [2]: 125000 nM
COc1c(OCCCCCC(=O)O)cc2oc3cc4c(c(O)c3c(=O)c2c1CC=C(C)C)C=CC(C)(C)O4	76	
COc1c(OCCCCCCBr)cc2oc3cc4c(c(O)c3c(=O)c2c1CC=C(C)C)C=CC(C)(C)O4	> 10000	
COc1c(OCCCBr)cc2oc3cc4c(c(O)c3c(=O)c2c1CC=C(C)C)C=CC(C)(C)O4	> 10000	
COc1ccc(C2CNC(=O)C2)cc1OC1CCCC1 (stereo not given) [ROLIPRAM]		Activity [3]: 100%
COc1c(OCCCCCCCC(=O)O)cc2oc3cc4c(c(O)c3c(=O)c2c1CC=C(C)C)C=CC(C)(C)O4	16	
COc1cc2c(cc1OC)C(=O)C(CC1CCN(Cc3ccccc3)CC1)C2 (stereo not given)		Activity (Mus musculus [4]): Active; Activity (Mus musculus [5]): Active; Activity (Mus musculus [6]): Active

Now from value to compound, other results behind:

IC50 [1] [nM]	SMILES	further results
> 10000	CCOC(=O)CCCOc1cc2oc3cc4c(c(O)c3c(=O)c2c(CC=C(C)C)c1OC)C=CC(C)(C)O4	
> 10000	COc1c(OCCCCBr)cc2oc3cc4c(c(O)c3c(=O)c2c1CC=C(C)C)C=CC(C)(C)O4	
> 1000	COc1c(OCCCN2CCCC2)cc2oc3cc4c(c(O)c3c(=O)c2c1CC=C(C)C)C=CC(C)(C)O4	
44	COc1c(OCCCC(=O)O)cc2oc3cc4c(c(O)c3c(=O)c2c1CC=C(C)C)C=CC(C)(C)O4	
> 10000	CCOC(=O)CCCCCCOc1cc2oc3cc4c(c(O)c3c(=O)c2c(CC=C(C)C)c1OC)C=CC(C)(C)O4	
148	COc1c(OCCCCCCCN2CCCC2)cc2oc3cc4c(c(O)c3c(=O)c2c1CC=C(C)C)C=CC(C)(C)O4	
99	COc1c(OCCCCC(=O)O)cc2oc3cc4c(c(O)c3c(=O)c2c1CC=C(C)C)C=CC(C)(C)O4	
420	COc1c(O)cc2oc3cc4c(c(O)c3c(=O)c2c1CC=C(C)C)C=CC(C)(C)O4 [MANGOSTANIN]	
> 10000	CCOC(=O)COc1cc2oc3cc4c(c(O)c3c(=O)c2c(CC=C(C)C)c1OC)C=CC(C)(C)O4	
> 10000	CCOC(=O)CCCCOc1cc2oc3cc4c(c(O)c3c(=O)c2c(CC=C(C)C)c1OC)C=CC(C)(C)O4	
480	COc1c(OCC(=O)O)cc2oc3cc4c(c(O)c3c(=O)c2c1CC=C(C)C)C=CC(C)(C)O4	
> 10000	CCOC(=O)CCCCCOc1cc2oc3cc4c(c(O)c3c(=O)c2c(CC=C(C)C)c1OC)C=CC(C)(C)O4	

From ChEMBL document CHEMBL4402573, “Discovery and Optimization of α-Mangostin Derivatives as Novel PDE4 Inhibitors for the Treatment of Vascular Dementia” (J Med Chem, 2020)
